Like-named read-outs stand apart in the source and are kept apart here.
Tests used:
A549 [1] = assay: MTS cytotoxicity assay, 2D cell culture; conditions: Homo sapiens, A549, 72 h, read-out: Cytotoxicity Assay IC50 ± SD, A549 2D
Method: (§1) MTS assay gives us information about the number of living cells, in this case, metabolically active cells, whereas the BrdU proliferation assay gives a measure of the cell population in active division phase. Both assays were performed in 2D and 3D assay formats. For the 2D cell assay format, we used classic two-dimensional in vitro assays and as a 3D assay we used a hanging drop proliferation cell assay as previously described. We explored the activity of compounds on three human lung cancer cell lines, A549, HCC827 and NCI-H358. The compound activity was also tested on human lung fibroblast cell line MRC-5. A two-dimensional in vitro viability assay was performed on the MRC-5 cell line to see if tested compounds are cytotoxic on normal cell lines in low concentrations. […] 7.1.
(§2) Test compounds were synthesized by a research group at the Department of Organic Chemistry, Faculty of Chemical Engineering and Technology, University of Zagreb. […] Compounds were diluted 1:3. We transferred 500 nL (for 2D cell culture) or 400 nL (for 3D cell culture) of the compound from a mother plate to test plate by using Mosquito (TTP labtech). DMSO percentage in test concentrations was 0.5–1.0%. Starting concentration of the test compounds and standard compound doxorubicin was 50 µM (2D cell culture) or 100 µM (3D cell culture).
(§3) Cells were grown in 96-well cell star polystyrene plates. We seeded 10,000 cells/well in wells 4 h prior to the treatment with different compounds concentrations and incubated for 72 h. A cell viability assay was performed according to the manufacturer’s instructions, using CellTiter 96 aqueous solution, MTS kit (Promega, Madison, WI, USA). After 0.5–2 h of cell incubation with MTS in 2D cell culture, the plates were read using PE EnVision absorbance at 490 nm.
(§4) Calculation of IC50 data, curves and QC analysis was performed by using Excel tools and GraphPadPrism software (La Jolla, CA, USA), v. […] QC criteria parameters (Z’, S:B, R2, HillSlope) were checked for every IC50 curve.

HCC827 [2] = assay: MTS cytotoxicity assay, 2D cell culture; conditions: Homo sapiens, HCC827, 72 h, read-out: Cytotoxicity Assay IC50 ± SD; HCC827 2D
Method: as §1, §2, §3, §4

NCI-H358 [3] = assay: MTS cytotoxicity assay, 2D cell culture; conditions: Homo sapiens, NCI-H358, 72 h, read-out: Cytotoxicity Assay IC50 ± SD; NCI-H358 2D
Method: as §1, §2, §3, §4

A549 [4] = assay: BrdU proliferation assay, 3D hanging drop cell culture; assay type: cell-based, human; conditions: Homo sapiens
Method: as §1, §2
(§5) Cells were grown in 96-well Perfecta 3D hanging drop plates 5000 cell/well for 4 days until spheres were formed (and checked under the microscope). After sphere formation cells were treated with compounds followed by 72 h incubation. Cell viability assay was performed according to the manufacturer’s instructions, using CellTiter GLO 3D for 3D cell culture (Promega); cell incubation was 5 min on the shaker followed by 25 min incubation in the dark. Plates were read using PE EnVision luminescence.
(§6) Proliferation assay was performed using Cell Proliferation ELISA, BrdU (Sigma, St. Louis, MO, USA). Briefly, 48 h hours after compound addition, 10 µM of BrdU was added to each well and incubated for the following 24 h. After incubation, a single cell suspension was made for 3D cell culture in the new 96-well plate. Plates were centrifuged and supernatants were removed from each plate (for 2D and 3D cell culture) followed by 60 min incubation at 60 °C. The rest of the proliferation assay was performed according to the manufacturer’s instructions.
as §4

HCC827 [5] = assay: as above; assay type: cell-based, human; conditions: Homo sapiens
Method: as §1, §2, §5, §6, §4

NCI-H358 [6] = assay: as above; assay type: cell-based, human; conditions: Homo sapiens, NCI-H358, 3D, n = 2, read-out: Proliferation Assay IC50 ± SD
Method: as §1, §2, §5, §6, §4

S. cerevisiae ATCC 7752 = assay: Broth microdilution testing (CLSI); assay type: cell-based, Saccharomyces cerevisiae
Method: (§7) Broth microdilution testing was performed according to CLSI (Clinical Laboratory Standards Institute) guidelines. MIC (minimal inhibitory concentration) value was defined as the last tested concentration of compound at which there is no visible growth of bacteria. […] Clinical and Laboratory Standards Institute (CLSI) guidelines.

[7] = MTS cytotoxicity assay, 2D cell culture, normal lung fibroblasts; conditions: human
Method: as §1, §2, §3, §4

A549 [8] = assay: Cytotoxicity (viability) assay, 3D hanging drop cell culture; conditions: Homo sapiens, A549, 72 h, read-out: Cytotoxicity Assay IC50 ± SD; A549 3D
Method: as §1, §2, §5, §4

HCC827 [9] = assay: as above; conditions: Homo sapiens, HCC827, 72 h, read-out: Cytotoxicity Assay IC50 ± SD; HCC827 3D
Method: as §1, §2, §5, §4

NCI-H358 [10] = assay: as above; conditions: Homo sapiens, NCI-H358, 72 h, read-out: Cytotoxicity Assay IC50 ± SD; NCI-H358 3D
Method: as §1, §2, §5, §4

E. coli ATCC 25922 = assay: Broth microdilution testing (CLSI); assay type: cell-based, Escherichia coli
Method: as §7

A549 [11] = assay: BrdU proliferation assay, 2D cell culture; assay type: cell-based, human; conditions: Homo sapiens
Method: as §1, §2, §3, §6, §4

HCC827 [12] = assay: BrdU proliferation assay, 2D cell culture; assay type: cell-based, human; conditions: Homo sapiens
Method: as §1, §2, §3, §6, §4

NCI-H358 [13] = assay: BrdU proliferation assay, 2D cell culture; assay type: cell-based, human; conditions: Homo sapiens, NCI-H358, 2D, n = 2, read-out: Proliferation Assay IC50 ± SD
Method: as §1, §2, §3, §6, §4

S. aureus ATCC 29213 = assay: Broth microdilution testing (CLSI); assay type: cell-based, Staphylococcus aureus
Method: as §7

[14] = A549, 3D, BrdU, n = 2, read-out: Proliferation Assay IC50 ± SD
[15] = HCC827, 3D, BrdU, n = 2, read-out: Proliferation Assay IC50 ± SD
[16] = Saccharomyces cerevisiae, ATCC7752, broth microdilution, 16–24h at 37 °C, read-out: MIC S. cerevisiae ATCC 7752
[17] = MRC-5 normal lung fibroblasts, 2D culture
[18] = Escherichia coli, ATCC25922, broth microdilution, 16–24h at 37 °C, read-out: MIC E. coli ATCC 25922
[19] = A549, 2D, BrdU, n = 2, read-out: Proliferation Assay IC50 ± SD
[20] = HCC827, 2D, BrdU, n = 2, read-out: Proliferation Assay IC50 ± SD
[21] = Staphylococcus aureus, ATCC29213, broth microdilution, 16–24h at 37 °C, read-out: MIC S. aureus ATCC 29213
[22] = A549, read-out: Proliferation Assay IC50 ± SD, A549 3D
[23] = HCC827, read-out: Proliferation Assay IC50 ± SD, HCC827 3D
[24] = A549, read-out: Proliferation Assay IC50 ± SD, A549 2D
[25] = HCC827, read-out: Proliferation Assay IC50 ± SD, HCC827 2D

Molecule	IC50 (A549 [1]; 72 h, MTS, n = 2)	IC50 (HCC827 [2])	IC50 (NCI-H358 [3])	IC50 (A549 [4]; [14])	IC50 (NCI-H358 [6])	IC50 (A549 [8])	IC50 (HCC827 [9])	IC50 (NCI-H358 [10])	IC50 (A549 [11]; [19])	IC50 (NCI-H358 [13])	IC50 at 72 h [7]	IC50 (HCC827 [12]; [25])	further results
N#Cc1ccc2nc(-c3ccc(-c4ccc([N+](=O)[O-])cc4)o3)sc2c1 [Compound 4, 6-Cyano-2-[5-(4-nitrophenyl)furan-2-yl]benzothiazole]	> 50000 nM	> 50000 nM	> 50000 nM	> 100000 nM	> 100000 nM	> 100000 nM	> 100000 nM	> 100000 nM	> 50000 nM	> 50000 nM			melting point: 276 to 279 °C; IC50 (HCC827 [5]; [15]): > 100000 nM; MIC (S. cerevisiae ATCC 7752; [16]): > 100 µM; IC50 at 72 h [7, 17]: > 50000 nM; MIC (E. coli ATCC 25922; [18]): > 100 µM; IC50 (HCC827 [12]; [20]): > 50000 nM; MIC (S. aureus ATCC 29213; [21]): > 100 µM
N#C/C(=C\c1ccc(-c2ccc(Cl)cc2)o1)c1nc2ccccc2s1 [Compound 22, (E)-2-(Benzothiazol-2-yl)-3-[5-(4-chlorophenyl)furan-2-yl]acrylonitrile]		> 50000 nM	> 50000 nM		> 100000 nM	> 100000 nM	> 100000 nM	> 100000 nM		> 50000 nM	> 50000 nM	> 50000 nM	IC50 (A549 [1]): > 50000 nM; IC50 (A549 [4]; [22]): > 100000 nM; IC50 (HCC827 [5]; [23]): > 100000 nM; MIC (S. cerevisiae ATCC 7752; Saccharomyces cerevisiae, ATCC7752, read-out: MIC S. cerevisiae ATCC 7752): > 100 µM; MIC (E. coli ATCC 25922; Escherichia coli, ATCC25922, read-out: MIC E. coli ATCC 25922): > 100 µM; IC50 (A549 [11]; [24]): > 50000 nM; MIC (S. aureus ATCC 29213; Staphylococcus aureus, ATCC29213, read-out: MIC S. aureus ATCC 29213): > 100 µM
COc1cccc2c1C(=O)c1c(O)c3c(c(O)c1C2=O)C[C@@](O)(C(=O)CO)C[C@@H]3O[C@H]1C[C@H](N)[C@H](O)[C@H](C)O1 [Doxorubicin, reference compound]	1310 ± 110 nM	320 ± 30 nM	150 ± 60 nM	480 ± 30 nM	2300 ± 1910 nM	5860 ± 1100 nM	1470 ± 120 nM	990 ± 150 nM	130 ± 10 nM	70 ± 40 nM	600 ± 10 nM		IC50 (HCC827 [5]; [15]): 1890 ± 2300 nM; IC50 (HCC827 [12]; [20]): 250 ± 280 nM
CN[C@@H]1C[C@H]2O[C@@](C)([C@@H]1OC)n1c3ccccc3c3c4c(c5c6ccccc6n2c5c31)C(=O)NC4 [Staurosporine, reference compound]		33 ± 2 nM									31 ± 11 nM	4 ± 2 nM	IC50 (A549 [4]; [22]): 110 ± 1 nM; IC50 (A549 [11]; [24]): 35 ± 17 nM
COc1cc2c(Nc3ccc(Br)cc3F)ncnc2cc1OCC1CCN(C)CC1 [Vandetanib, reference compound]	> 25000 nM	580 ± 30 nM	3120 nM	> 50000 nM	380 ± 170 nM	> 50000 nM	160 ± 40 nM	380 ± 200 nM	> 25000 nM	> 25000 nM		200 ± 110 nM	IC50 (HCC827 [5]; [23]): 80 ± 20 nM; IC50 at 72 h [7, 17]: 11100 nM
C[C@@H](c1ncncc1F)[C@](O)(Cn1cncn1)c1ccc(F)cc1F [Voriconazole, reference compound]													MIC (S. cerevisiae ATCC 7752; [16]): < 0.125 µM; MIC (E. coli ATCC 25922; [18]): > 64 µM; MIC (S. aureus ATCC 29213; [21]): > 64 µM
Gentamycin [reference compound]													MIC (S. cerevisiae ATCC 7752; broth microdilution, 16–24h at 37 °C, read-out: MIC S. cerevisiae ATCC 7752): >64 µM; MIC (E. coli ATCC 25922; broth microdilution, 16–24h at 37 °C, read-out: MIC E. coli ATCC 25922): 0.5 µM; MIC (S. aureus ATCC 29213; broth microdilution, 16–24h at 37 °C, read-out: MIC S. aureus ATCC 29213): 0.25 µM

— paper PMC8401404 (Molecules, 2021)
